The values below come from publication PMC8301926 (Biomolecules, 2021).

Data set [1] deals with recombinant human MAO-A (hMAO-A). Details: method as in earlier work. The note with it: ref 27 (Dittman et al., 2004); read-out: IC50, recombinant human MAO-A (literature); cited from earlier work.
On the set-up of data set [2]: method as in PMID 31943245. To be noted: rats, cited from earlier work.
For data set [3], the target named is T1, recombinant human monoamine oxidase A (hMAO-A) (Homo sapiens, UniProt P21397).
T1 sequence (P21397 1-527): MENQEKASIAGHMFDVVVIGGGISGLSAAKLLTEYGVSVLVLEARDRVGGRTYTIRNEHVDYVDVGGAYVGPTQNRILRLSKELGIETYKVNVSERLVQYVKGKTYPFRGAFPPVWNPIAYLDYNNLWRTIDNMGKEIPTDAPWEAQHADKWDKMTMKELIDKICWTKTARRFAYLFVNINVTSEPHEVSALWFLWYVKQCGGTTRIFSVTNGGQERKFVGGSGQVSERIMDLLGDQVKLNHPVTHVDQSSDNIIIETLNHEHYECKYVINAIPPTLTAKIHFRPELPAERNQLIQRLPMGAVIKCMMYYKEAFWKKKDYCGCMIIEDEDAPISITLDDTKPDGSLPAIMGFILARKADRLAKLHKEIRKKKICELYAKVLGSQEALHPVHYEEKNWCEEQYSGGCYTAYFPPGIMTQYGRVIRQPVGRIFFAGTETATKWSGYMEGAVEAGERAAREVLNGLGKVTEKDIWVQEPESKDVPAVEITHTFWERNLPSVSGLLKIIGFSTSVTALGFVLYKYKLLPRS
Description: hMAO-A enzyme kinetics (Lineweaver-Burk, Dixon, secondary plots). The note with it: for Ki: hMAO-A, from secondary plots; for Inhibition Type, hMAO-A: Lineweaver-Burk and Dixon plots. In kind it is biochemical.

For data set [4], the target named is T1, recombinant human monoamine oxidase A (hMAO-A). Description: hMAO-A inhibition, MAO-Glo chemiluminescent assay. In kind it is biochemical.
Data set [5] has as its target T2, human M2 muscarinic acetylcholine receptor (hM2R) (Homo sapiens, UniProt P08172).
T2 construct: host or cells: CHO cells
T2 sequence (P08172 1-466): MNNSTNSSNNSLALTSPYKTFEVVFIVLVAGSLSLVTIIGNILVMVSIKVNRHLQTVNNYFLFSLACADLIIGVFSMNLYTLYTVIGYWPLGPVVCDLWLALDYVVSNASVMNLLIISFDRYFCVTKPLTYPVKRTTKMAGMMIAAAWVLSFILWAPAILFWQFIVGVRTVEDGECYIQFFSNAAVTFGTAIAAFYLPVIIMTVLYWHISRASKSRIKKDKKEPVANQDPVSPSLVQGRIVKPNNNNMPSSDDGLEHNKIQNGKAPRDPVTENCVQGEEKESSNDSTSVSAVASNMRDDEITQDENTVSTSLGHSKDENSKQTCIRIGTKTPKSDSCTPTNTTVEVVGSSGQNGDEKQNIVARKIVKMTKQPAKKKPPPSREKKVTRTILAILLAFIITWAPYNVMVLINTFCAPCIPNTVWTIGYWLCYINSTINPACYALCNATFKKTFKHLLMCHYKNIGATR
In words: M2 (h) functional GPCR assay, antagonist effect, cAMP HTRF. It counts as cell-based. To be noted: CHO.

For data set [6], the target named is T3, human M1 muscarinic acetylcholine receptor (hM1R) (Homo sapiens, UniProt P11229).
T3 construct: host or cells: CHO cells
T3 sequence (P11229 whole entry): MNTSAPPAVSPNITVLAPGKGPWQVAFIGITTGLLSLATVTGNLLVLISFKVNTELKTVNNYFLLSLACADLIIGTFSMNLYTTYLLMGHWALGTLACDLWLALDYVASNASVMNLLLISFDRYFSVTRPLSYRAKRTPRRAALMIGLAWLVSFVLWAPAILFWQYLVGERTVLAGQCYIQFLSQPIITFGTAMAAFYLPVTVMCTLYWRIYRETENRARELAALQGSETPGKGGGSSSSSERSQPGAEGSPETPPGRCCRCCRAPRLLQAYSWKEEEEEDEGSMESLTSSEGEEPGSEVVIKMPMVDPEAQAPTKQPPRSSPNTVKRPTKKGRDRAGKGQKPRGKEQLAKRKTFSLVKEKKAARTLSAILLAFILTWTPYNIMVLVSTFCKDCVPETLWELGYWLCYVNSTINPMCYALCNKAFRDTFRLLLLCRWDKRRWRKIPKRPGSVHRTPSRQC
In words: M1 (h) functional GPCR assay, antagonist effect, intracellular Ca2+. To be noted: CHO. It counts as cell-based.

Each structure is given as a SMILES string. Values joined by “and” are separate entries in the source; they are usually repeats but may differ in a detail not shown here. Equal entries are not always repeated.

The term IC50 denotes the point on the concentration scale where inhibition reaches its midpoint. In general, Ki refers to the dissociation constant of the complex between target and ligand, obtained from inhibition or displacement. For orientation: inhibition means the percentage by which the read-out fell short of the control. Higher therefore signals strong suppression. Take `Cc1coc2c1C(=O)C(=O)c1c-2ccc2c(C)cccc12` [Tanshinone I]: the IC50 is 80 µM in data set [1]; < 10 µM and 2.62 µM in data set [4] (IC50, hMAO-A, mean ± SD of triplicate experiments). Moreover, the tissue distribution entry in data set [2] (after oral administration) is “distribution of 1 into the brain”. Also, in data set [2] (oral administration, among tanshinones 1, 2, 3, and Dtan I), the half-life result is given as “most extended half-life”. Further, the Ki in data set [3] (Kic) was found to be 1.69 ± 0.19 µM; in data set [3] (Kiu), 4.65 ± 0.16 µM. The entries for the “Inhibition Type, hMAO-A” value in data set [3] and in data set [3] (listed as 1) were “Mixed” and “mixed-mode”, respectively. The “SI (selectivity index)” value in data set [4] (ratio of the IC50 value for hMAO-A inhibition to that for hMAO-B inhibition) is 0.11. The inhibition at 100 µM in data set [5] was 35.8 ± 4.74%; in data set [6], 13.8 ± 1.98%.
